Results reported in PubChem BioAssay (NCI).
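Cells were grown in 96-well plates and exposed to each compound for 48 hours at five concentrations; endpoints were interpolated linearly between bracketing concentrations, or set to the highest concentration if not reached. Here, GI50 denotes the concentration required for 50% inhibition of growth. TGI: concentration producing complete growth inhibition.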

Assays:
Assay in all cases: NCI anticancer screen, dose series, 48 h
[1] = tested on: 786-0 renal
[2] = tested on: A498 renal
[3] = tested on: A549 NSCLC
[4] = tested on: ACHN renal
[5] = tested on: BT-549 breast
[6] = tested on: CAKI-1 renal
[7] = tested on: CCRF-CEM leukemia
[8] = tested on: COLO 205 colon
[9] = tested on: DU-145 prostate
[10] = tested on: EKVX NSCLC
[11] = tested on: HCC-2998 colon
[12] = tested on: HCT-116 colon
[13] = tested on: HCT-15 colon
[14] = tested on: HL-60(TB) leukemia
[15] = tested on: HOP-62 NSCLC
[16] = tested on: HOP-92 NSCLC
[17] = tested on: HS 578T breast
[18] = tested on: HT29 colon
[19] = tested on: IGROV1 ovarian
[20] = tested on: K-562 leukemia
[21] = tested on: KM12 colon
[22] = tested on: LOX IMVI melanoma
[23] = tested on: M14 melanoma
[24] = tested on: MALME-3M melanoma
[25] = tested on: MCF7 breast
[26] = tested on: MDA-MB-231 breast
[27] = tested on: MDA-MB-435
[28] = tested on: MOLT-4 leukemia
[29] = tested on: NCI-H226 lung
[30] = tested on: NCI-H23 lung
[31] = tested on: NCI-H460 lung
[32] = tested on: NCI-H522 lung
[33] = tested on: NCI/ADR-RES ovarian
[34] = tested on: OVCAR-3 ovarian
[35] = tested on: OVCAR-4 ovarian
[36] = tested on: OVCAR-5 ovarian
[37] = tested on: OVCAR-8 ovarian
[38] = tested on: PC-3 prostate
[39] = tested on: RPMI-8226 leukemia
[40] = tested on: RXF 393 renal
[41] = tested on: SF-268 CNS
[42] = tested on: SF-295 CNS
[43] = tested on: SF-539 CNS
[44] = tested on: SK-MEL-2 melanoma
[45] = tested on: SK-MEL-28 melanoma
[46] = tested on: SK-MEL-5 melanoma
[47] = tested on: SK-OV-3 ovarian
[48] = tested on: SN12C renal
[49] = tested on: SNB-19 CNS
[50] = tested on: SNB-75 CNS
[51] = tested on: SR leukemia
[52] = tested on: SW-620 colon
[53] = tested on: T-47D breast
[54] = tested on: TK-10 renal
[55] = tested on: U251 CNS
[56] = tested on: UACC-257 melanoma
[57] = tested on: UACC-62 melanoma
[58] = tested on: UO-31 renal

CC(C)C(=O)Nc1ccc(-c2nc(-c3cccc(O)c3)c(-c3ccnc(Br)c3)[nH]2)cc1 gave a GI50 [1] of 718 nM, a TGI [1] of 7630 nM and a GI50 [2] of 957 nM. It also gave a TGI [2] of 5550 nM, a GI50 [3] of 1640 nM and a TGI [3] of 23600 nM. The GI50 [4] was 1700 nM, the TGI [4] was 26600 nM and the GI50 [5] was 1090 nM. It also gave a TGI [5] of 7250 nM, a GI50 [6] of 932 nM and a TGI [6] of 9120 nM. For the same compound, the GI50 [7] was 653 nM, the TGI [7] was > 100000 nM and the GI50 [8] was 1470 nM. The TGI [8] was 6940 nM, the GI50 [9] was 2540 nM and the TGI [9] was 41300 nM. The GI50 [10] was 1840 nM, the TGI [10] was 25600 nM and the GI50 [11] was 1380 nM. It also gave a TGI [11] of 6710 nM, a GI50 [12] of 905 nM and a TGI [12] of 7680 nM. The GI50 [13] was 1260 nM, the TGI [13] was 9760 nM and the GI50 [14] was 768 nM. The TGI [14] was 2740 nM, the GI50 [15] was 1820 nM and the TGI [15] was 35200 nM. The GI50 [16] was 2170 nM, the TGI [16] was 7270 nM and the GI50 [17] was 592 nM. The TGI [17] was 2320 nM, the GI50 [18] was 1400 nM and the TGI [18] was > 60100 nM. The GI50 [19] was 962 nM, the TGI [19] was 5830 nM and the GI50 [20] was 601 nM. The TGI [20] was > 100000 nM, the GI50 [21] was 1290 nM and the TGI [21] was 21700 nM. For the same compound, the GI50 [22] was 404 nM, the TGI [22] was 5710 nM and the GI50 [23] was 764 nM. It also gave a TGI [23] of 8130 nM, a GI50 [24] of 919 nM and a TGI [24] of 4900 nM. For the same compound, the GI50 [25] was 566 nM, the TGI [25] was 4510 nM and the GI50 [26] was 1610 nM. It also gave a TGI [26] of 36300 nM, a GI50 [27] of 4240 nM and a TGI [27] of 20600 nM. It also gave a GI50 [28] of 835 nM, a TGI [28] of 7980 nM and a GI50 [29] of 1780 nM. The TGI [29] was 8950 nM, the GI50 [30] was 1190 nM and the TGI [30] was 12900 nM. It also gave a GI50 [31] of 1450 nM, a TGI [31] of 9010 nM and a GI50 [32] of 1240 nM. For the same compound, the TGI [32] was 9030 nM, the GI50 [33] was 18000 nM and the TGI [33] was > 100000 nM. For the same compound, the GI50 [34] was 1090 nM, the TGI [34] was 6600 nM and the GI50 [35] was 2850 nM. The TGI [35] was 27700 nM, the GI50 [36] was 2360 nM and the TGI [36] was 59100 nM. It also gave a GI50 [37] of 1280 nM, a TGI [37] of 18600 nM and a GI50 [38] of 877 nM. It also gave a TGI [38] of 8210 nM, a GI50 [39] of 830 nM and a TGI [39] of 2430 nM. It also gave a GI50 [40] of 370 nM, a TGI [40] of 1320 nM and a GI50 [41] of 2830 nM. The TGI [41] was 40000 nM, the GI50 [42] was 204 nM and the TGI [42] was 457 nM. It also gave a GI50 [43] of 685 nM, a TGI [43] of 2890 nM and a GI50 [44] of 1640 nM. For the same compound, the TGI [44] was 9810 nM, the GI50 [45] was 1750 nM and the TGI [45] was 23500 nM. It also gave a GI50 [46] of 1100 nM, a TGI [46] of 3240 nM and a GI50 [47] of 1890 nM. The TGI [47] was 10600 nM, the GI50 [48] was 1490 nM and the TGI [48] was 34800 nM. For the same compound, the GI50 [49] was 1470 nM, the TGI [49] was 61200 nM and the GI50 [50] was 529 nM. The TGI [50] was 2600 nM, the GI50 [51] was 1190 nM and the TGI [51] was > 100000 nM. It also gave a GI50 [52] of 1400 nM, a TGI [52] of 16200 nM and a GI50 [53] of 1090 nM. For the same compound, the TGI [53] was 9590 nM, the GI50 [54] was 5880 nM and the TGI [54] was 36800 nM. The GI50 [55] was 1100 nM, the TGI [55] was 47900 nM and the GI50 [56] was 3470 nM. The TGI [56] was 24200 nM, the GI50 [57] was 758 nM and the TGI [57] was 5370 nM. The GI50 [58] was 1040 nM and the TGI [58] was 4590 nM.
